# Measurements taken from patent publication US4839386A, “Ionic bis (Dicarboxylato) palladate (II)” (Engelhard Corporation, priority 1987, dated 1989).
# Where “and” joins values, the source holds several entries; their conditions need not be identical. Equal entries are not always repeated. Where two headings read alike, the source gives them in different places.
# Key:
# [1] = solubility in water at room temperature
# [2] = tested on: S 180 Ascites; experiment: effective dose (ED90) and therapeutic index, S 180 ascites, method of Miller and Taiter; type: in vivo, mice; set-up: ED90: unit not given here; settings: for Therapeutic Index: LD50/ED90; for ED90: dose which causes a 50% increase in life span in 90% of the test animals, determined graphically
# Method: The effective dose (ED90), lethal dose (LD50) and therapeutic index (TI) were determined via the method of Miller and Taiter (Reported by R. A. Turner, "Screening Methods in Pharmacology", Academic Press, New York, pages 61-62 (1965)).
# In this study Ed90 represents the dose which causes a 50% increase in life span (ILS) in 90% of the test animals (mice) determined graphically. The LD50 value represents the lethal dose to 50% of said animals (Therapeutic Index=LD50 /Ed90).
# [3] = tested on: S180 ascites; experiment: Anti-Tumor Screening; S180 ascites in mice (% increase in life span, survivors); type: in vivo, female CFW Swiss mice; settings: for Best % ILS (Dosage): Table 4
# Method: The compounds used in this invention were evaluated against S180 ascites in female CFW Swiss mice. The mice were weighed (average weight: 20 g), placed into cages (six mice to a cage) and on day zero the mice were inoculated with 0.2 ml of a freshly prepared saline suspension (0.15M NaC1) containing 1×10^7 tumor cells/ml or a total of 2×10^6 cells. This inoculum was freshly prepared using "transfer" mice which had been injected with tumor cells the previous week; it was obtained via the following steps (1) the removal of cells from the peritoneal cavity of the sacrificed transfer mouse, (2) alternate centrifugation and washing operations (2-3 times with cold saline) to remove blood and other components, and (3) dilution of the volume of the packed cell with saline (1:3). A final centrifugation was carried out at 1000 RPM over a two minute period. A cell count was made on a 2000-fold dilution of this 1:3 suspension by means of a Coulter Counter. A final dilution to 1×10^7 cells/ml was made based on the average count.
# On day 1, solutions of the test compounds were prepared and each mouse in a set of six was injected with the same test compound at the same dosage. The doses were based on the average weight of the animals (cage weight). Also, beginning on day 1 two controls were employed containing six mice per control:
# (1) Normal Control: This consisted solely of the carrier or diluent used in combination with the test compound; and
# (2) Positive Control: This consisted solely of the known anti-tumor agent cis-[Pt(NH3)2 C12 ] in saline (8 mg/kg) to test the response of the biological system.
# The effectiveness of a test compound was measured in terms of the % increase in life span (% ILS) of the test mice relative to the Normal Control (Calculated from the day of tumor inoculation, i.e., day zero). To standardize the test data and permit intercomparisons, the day of evaluation was arbitrarily taken as that day corresponding to twice the mean life span (or average day of death) of the control. This established a practical upper limit of 100% on the % ILS attainable. For calculation purposes the survivors on the day of evaluation were considered to have died on that day. The % ILS was calculated as follows:
# % ILS=mean-life span of test mice/mean-life span of control
# ILS values in excess of 50% were interpreted as being indicative of anti-tumor cell activity in animals whereas, values in excess of 75% indicated excellent activity.
# The test compounds were evaluated in water.
# [4] = tested on: testicular and ovarian tumors; settings: background; cited from earlier work
Compound,Therapeutic Index [2],ED90 [2],% ILS ([3]; 10 mg/kg),Survivors ([3]; 10 mg/kg),Survivors ([3]; 20 mg/kg),Survivors ([3]; 40 mg/kg),Survivors ([3]; 80 mg/kg),Best % ILS (Dosage) ([3]; 160 mg/kg),% ILS ([3]; 20 mg/kg),% ILS ([3]; 40 mg/kg) [%],% ILS ([3]; 80 mg/kg),% ILS ([3]; 160 mg/kg),Survivors ([3]; 160 mg/kg),% ILS ([3]; 320 mg/kg) [%],Survivors ([3]; 320 mg/kg),% ILS ([3]; 50 mg/kg) [%],Survivors ([3]; 50 mg/kg),% ILS ([3]; 100 mg/kg) [%],Survivors ([3]; 100 mg/kg),% ILS ([3]; 200 mg/kg) [%],further results
"CCC(C(=O)[O-])C(=O)[O-].CCC(C(=O)[O-])C(=O)[O-].[K+].[K+].[Pd+2] [Example 1, Potassium Bis(Ethylmalonato)palladate(II)]",2.1,150,-3%,0 of 6,0 of 6,0 of 6,0 of 6,94%,,,,,,,,,,,,,"solubility in water [1]: 70 mg/mL; % ILS ([3]; 5 mg/kg): 6%; Survivors ([3]; 5 mg/kg): 0 of 6; % ILS ([3]; 160 mg/kg, listed as Ex. 1): 94% and 55%; Survivors ([3]; 160 mg/kg, listed as Ex. 1): 5 of 6 and 1 of 6; Survivors ([3]; 320 mg/kg, listed as Ex. 1): 0 of 6 and 1 of 6"
"O=C([O-])C(=O)C(=O)[O-].O=C([O-])C(=O)C(=O)[O-].[K+].[K+].[Pd+2] [Example 2, Potassium Bis(Ketomalonato)palladate(II)]",2.0,200,4%,0 of 6,0 of 6,0 of 6,1 of 6,81%,4%,4,13%,81%,5 of 6,17,0 of 6,,,,,,solubility in water: 6.7 mg/mL
"CC(C(=O)[O-])C(=O)[O-].CC(C(=O)[O-])C(=O)[O-].[K+].[K+].[Pd+2] [Example 3, Potassium Bis(Methylmalonato)palladate(II)]",1.1,160,,,,,,,,,,,,,,2,0 of 6,54,2 of 6,54,solubility in water [1]: 21 mg/mL; % ILS ([3]; 6.25 mg/kg): 11%; Survivors ([3]; 6.25 mg/kg): 0 of 6; % ILS ([3]; 12.5 mg/kg): 2%; Survivors ([3]; 12.5 mg/kg): 0 of 6; % ILS ([3]; 25 mg/kg): -6%; Survivors ([3]; 25 mg/kg): 0 of 6; Best % ILS (Dosage) ([3]; 100 mg/kg): 54%; Survivors ([3]; 200 mg/kg): 0 of 6; % ILS ([3]; 400 mg/kg): -83%; Survivors ([3]; 400 mg/kg): 0 of 6
"O=C([O-])C(O)C(=O)[O-].O=C([O-])C(O)C(=O)[O-].[K+].[K+].[Pd+2] [Example 4, Potassium Bis(Tartronato)palladate(II)]",2.1,190,,,,,,,,,,,,,,11,0 of 6,68,3 of 6,76,solubility in water: 2 mg/mL; % ILS ([3]; 12.5 mg/kg): 1%; Survivors ([3]; 12.5 mg/kg): 0 of 6; % ILS ([3]; 25 mg/kg): 12%; Survivors ([3]; 25 mg/kg): 0 of 6; Survivors ([3]; 200 mg/kg): 0 of 6; Best % ILS (Dosage) ([3]; 200 mg/kg): 76%; % ILS ([3]; 400 mg/kg): 14%; Survivors ([3]; 400 mg/kg): 3 of 6
"O=C([O-])c1ccccc1C(=O)[O-].O=C([O-])c1ccccc1C(=O)[O-].[K+].[K+].[Pd+2] [Example 5, Potassium Bis(phthalato)palladate(II)]",2.3,220,,,,,,,,,,,,,,18,0 of 6,38,1 of 6,79,solubility in water [1]: 80 mg/mL; Survivors ([3]; 200 mg/kg): 2 of 6; Best % ILS (Dosage) ([3]; 200 mg/kg): 79%; % ILS ([3]; 400 mg/kg): 25%; Survivors ([3]; 400 mg/kg): 0 of 6
"O=C([O-])C1(C(=O)[O-])CCC1.O=C([O-])C1(C(=O)[O-])CCC1.[K+].[K+].[Pd+2] [Example 6, Potassium Bis(Cyclobutanedicarboxylato)palladate(II)]",1.1,210,-4%,0 of 6,0 of 6,0 of 6,0 of 6,50%,9%,7,-7%,50%,0 of 6,-75,0 of 6,,,,,,solubility in water: 200 mg/mL
"CC(C)(C(=O)[O-])C(=O)[O-].CC(C)(C(=O)[O-])C(=O)[O-].[K+].[K+].[Pd+2] [Example 7, Potasium Bis(Dimethylmalonato)palladate(II)]",,210,-15%,0 of 6,0 of 6,0 of 6,0 of 6,61%,0%,-8,-11%,61%,1 of 6,26,0 of 6,,,,,,
O=C([O-])CC(=O)[O-].O=C([O-])CC(=O)[O-].[K+].[K+].[Pd+2] [K2 [Pd(Malonate)2]],,120,6% and 8%,0 of 6,0 of 6,0 of 6,3 of 6 and 2 of 6,82% and 86%,-1% and 8%,-12,69% and 66%,82% and 86%,2 of 6 and 3 of 6,-74,0 of 6,,,,,,
"O=C([O-])C(=O)[O-].O=C([O-])C(=O)[O-].[K+].[K+].[Pd+2] [K2 [Pd(Oxalate)2], reference compound]",,,,,,,,,,,,,,,,-7,0 of 6,-9,1 of 6,-71,% ILS ([3]; 12.5 mg/kg): 2%; Survivors ([3]; 12.5 mg/kg): 0 of 6; % ILS ([3]; 25 mg/kg): 33%; Survivors ([3]; 25 mg/kg): 0 of 6; Survivors ([3]; 200 mg/kg): 0 of 6
"cis-[Pt(NH3)2 -Cl2 ] [Positive Control, reference compound]",,,,,,,,,,,,,,,,,,,,,regression of testicular and ovarian tumors (in words) [4]: singularly successful in bringing about a regression of testicular and ovarian tumors; Positive Control Survivors ([3]; 8 mg/kg in saline): 0 of 6 and 1 of 6 and 2 of 6 and 4 of 6
